Experimental data published in patent US8022205B2, “Pyrimidine derivatives as PI3K inhibitor and use thereof” (Chugai Seiyaku Kabushiki Kaisha, priority 2006, dated 2011).

Columns and labels:
[1] = molecular target: human PI3K(p110α/p85α) (Homo sapiens, UniProt P42336); assay: Measurement of PI3K inhibitory activity (AlphaScreen GST Detection Kit); assay type: biochemical; conditions: 10 μM ATP, 4 μM PI(4,5)P2, read-out: Enzyme inhibitory activity (IC50, μM) PI3K α
Procedure, shortened: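 AlphaScreen read-out: after 1 h at room temperature, GST-GRP1, biotin-PI(3,4,5)P3 and donor/acceptor beads sensed PIP3 made by the enzyme. The kinase reaction used baculovirus-made human PI3K p110α/p85α with 10 μM ATP and 4 μM PI(4,5)P2 for 15 min at 37 °C, following a 20-min compound preincubation.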

[2] = test system: human colon cancer cell line HCT116; assay: Cell proliferation inhibitory activity (Cell Counting Kit-8), colon cancer HCT116; assay type: cell-based; conditions: HCT-116, 96 h, HCT116, 4 days
Procedure, shortened: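 HCT116 cells (2000/well) were exposed to compounds for 4 days at 37 °C under CO2. Viability was then read with CCK-8 as absorbance at 450 nm (reference 615 nm).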

[3] = test system: human prostate cancer cell line PC3; assay: Cell proliferation inhibitory activity (Cell Counting Kit-8), prostate cancer PC3; assay type: cell-based; conditions: 96 h, PC3, 4 days
Procedure, shortened: (§1)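 PC3 (3000 cells/well) or NCI-H460 (1000 cells/well) exposed to compound for 4 days at 37 °C in CO2. CCK-8 absorbance at 450 nm (reference 615 nm); percent proliferation inhibition calculated at 2.5 µM.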

[4] = test system: human lung cancer cell line NCI-H460; assay: Cell proliferation inhibitory activity (Cell Counting Kit-8), lung cancer NCI-H460; assay type: cell-based; conditions: 96 h, NCI-H460, 4 days, read-out: Cell proliferation inhibitory activity (% Inhibition at 2.5 μM) Non-small cell lung cancer (NCI-H460)
Procedure, shortened: as §1

Chain of human PI3K(p110α/p85α) (P42336 whole entry): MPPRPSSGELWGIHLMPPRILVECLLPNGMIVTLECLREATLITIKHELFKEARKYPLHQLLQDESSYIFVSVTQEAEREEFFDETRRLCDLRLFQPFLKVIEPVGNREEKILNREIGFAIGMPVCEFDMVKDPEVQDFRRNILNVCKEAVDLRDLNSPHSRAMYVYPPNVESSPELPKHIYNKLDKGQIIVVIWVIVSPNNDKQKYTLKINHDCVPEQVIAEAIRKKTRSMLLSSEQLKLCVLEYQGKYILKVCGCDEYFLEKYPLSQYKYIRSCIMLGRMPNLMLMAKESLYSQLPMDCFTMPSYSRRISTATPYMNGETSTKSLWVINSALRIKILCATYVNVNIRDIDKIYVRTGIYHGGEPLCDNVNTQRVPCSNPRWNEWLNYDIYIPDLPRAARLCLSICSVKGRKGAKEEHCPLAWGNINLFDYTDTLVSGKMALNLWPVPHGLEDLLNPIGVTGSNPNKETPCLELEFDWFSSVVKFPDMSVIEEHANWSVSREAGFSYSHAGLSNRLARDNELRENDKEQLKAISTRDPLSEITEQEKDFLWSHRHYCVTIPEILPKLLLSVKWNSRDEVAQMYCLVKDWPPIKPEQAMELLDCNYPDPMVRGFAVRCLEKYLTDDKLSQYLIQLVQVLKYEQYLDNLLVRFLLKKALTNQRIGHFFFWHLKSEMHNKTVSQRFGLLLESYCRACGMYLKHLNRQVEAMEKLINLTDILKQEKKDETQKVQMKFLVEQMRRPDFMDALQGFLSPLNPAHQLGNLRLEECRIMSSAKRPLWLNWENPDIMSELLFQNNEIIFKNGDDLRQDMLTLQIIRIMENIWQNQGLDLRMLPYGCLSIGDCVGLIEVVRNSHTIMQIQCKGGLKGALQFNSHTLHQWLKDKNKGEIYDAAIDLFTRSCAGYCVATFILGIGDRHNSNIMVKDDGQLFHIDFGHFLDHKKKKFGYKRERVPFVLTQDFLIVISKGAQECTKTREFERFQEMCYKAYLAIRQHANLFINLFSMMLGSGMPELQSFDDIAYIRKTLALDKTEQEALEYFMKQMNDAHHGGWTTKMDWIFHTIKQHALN
Chain of human PI3K(p110α/p85α) (P27986 whole entry partner): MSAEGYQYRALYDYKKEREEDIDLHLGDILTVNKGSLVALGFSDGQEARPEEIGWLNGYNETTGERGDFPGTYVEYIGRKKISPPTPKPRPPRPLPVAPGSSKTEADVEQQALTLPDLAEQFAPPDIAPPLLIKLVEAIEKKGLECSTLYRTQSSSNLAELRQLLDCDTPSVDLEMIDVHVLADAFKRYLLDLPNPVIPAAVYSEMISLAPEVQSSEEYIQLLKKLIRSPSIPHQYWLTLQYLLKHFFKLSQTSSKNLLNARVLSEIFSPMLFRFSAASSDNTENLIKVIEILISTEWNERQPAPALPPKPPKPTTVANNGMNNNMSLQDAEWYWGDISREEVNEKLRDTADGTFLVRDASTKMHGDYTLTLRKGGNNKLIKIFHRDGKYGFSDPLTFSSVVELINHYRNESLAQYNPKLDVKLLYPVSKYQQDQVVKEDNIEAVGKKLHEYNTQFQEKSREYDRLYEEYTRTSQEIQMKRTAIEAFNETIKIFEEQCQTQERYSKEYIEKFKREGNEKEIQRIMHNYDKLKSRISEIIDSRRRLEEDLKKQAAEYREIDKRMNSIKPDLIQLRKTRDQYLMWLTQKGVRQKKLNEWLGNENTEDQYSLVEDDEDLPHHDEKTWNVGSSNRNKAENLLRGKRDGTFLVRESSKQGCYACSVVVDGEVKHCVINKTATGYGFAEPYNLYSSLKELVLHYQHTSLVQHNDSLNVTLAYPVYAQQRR

Row | SMILES | IC50 [1] | inhibition at 2.5 µM [2] | inhibition at 2.5 µM [3] | inhibition at 2.5 µM [4]
1 | CN1CCN(C(=O)c2ccc(N3CCc4c(-c5cnc(N)nc5)nc(N5CCOCC5)nc43)cc2)CC1 [Example D-42, {4-[4-(2-Amino-pyrimidin-5-yl)-2-morpholin-4-yl-5,6-dihydro-pyrrolo[2,3-d]pyrimidin-7-yl]-phenyl}-(4-methyl-piperazin-1-yl)-methanone] | 0.014 µM | 91% | 88% | 94%
2 | OCc1cc(-c2nc(N3CCOCC3)nc3c2CCN3c2ccncc2)ccc1F [Example B-35, [2-Fluoro-5-(2-morpholin-4-yl-7-pyridin-4-yl-6,7-dihydro-5H-pyrrolo[2,3-d]pyrimidin-4-yl)-phenyl]-methanol] | 0.87 µM | 78% | 61% | 71%
3 | CN1CCN(C(=O)c2ccc(NC(=S)N3CCc4c(-c5cnc(N)nc5)nc(N5CCOCC5)nc43)cc2)CC1 [Example D-231, 4-(2-Amino-pyrimidin-5-yl)-2-morpholin-4-yl-5,6-dihydro-pyrrolo[2,3-d]pyrimidine-7-carbothioic acid [4-(4-methyl-piperazine-1-carbonyl)-phenyl]-amide] | 0.011 µM | 33% | 37% | 71%
4 | CCN1CCN(C(=O)c2ccc(N3CCc4c(-c5cnc(N)nc5)nc(N5CCOCC5)nc43)cn2)CC1 [Example D-95, {5-[4-(2-Amino-pyrimidin-5-yl)-2-morpholin-4-yl-5,6-dihydro-pyrrolo[2,3-d]pyrimidin-7-yl]-pyridin-2-yl}-(4-ethyl-piperazin-1-yl)-methanone] | 0.007 µM | 93% | 91% | 83%
5 | Nc1ncc(-c2nc(N3CCOCC3)nc3c2CCN3c2ccc(C(=O)N3CCNCC3)nc2)cn1 [Example D-128, {5-[4-(2-Amino-pyrimidin-5-yl)-2-morpholin-4-yl-5,6-dihydro-pyrrolo[2,3-d]pyrimidin-7-yl]-pyridin-2-yl}-piperazin-1-yl-methanone] | 0.008 µM | 81% | 60% | 95%
6 | Nc1ccc(-c2nc(N3CCOCC3)nc3c2CCN3c2ccncc2)cn1 [Example B-03, 5-(2-Morpholin-4-yl-7-pyridin-4-yl-6,7-dihydro-5H-pyrrolo[2,3-d]pyrimidin-4-yl)-pyridin-2-ylamine] | 0.24 µM | 100% | 95% | 97%
7 | Nc1ncc(-c2nc(N3CCOCC3)nc3c2CCN3C(=O)Nc2cccc(C(=O)N3CCOCC3)c2)cn1 [Example D-102, 4-(2-Amino-pyrimidin-5-yl)-2-morpholin-4-yl-5,6-dihydro-pyrrolo[2,3-d]pyrimidine-7-carboxylic acid [3-(morpholine-4-carbonyl)-phenyl]-amide] | 0.007 µM | 72% | 70% | 94%
